The results in this text go back to US20110124787A1, “RUBBER COMPOSITION” (BRIDGESTONE CORPORATION, priority 2008, published 2011).

Usually melting point stands for the temperature of the solid-liquid transition. In the case of `CN(Sc1nc2ccccc2s1)C(C)(C)C` [N-methyl-N-t-butylbenzothiazole-2-sulfenamide], the melting point was in the range of 56 to 58 °C.
In the case of `CCCCN(Sc1nc2ccccc2s1)C(C)(C)C` [N-n-butyl-N-t-butylbenzothiazole-2-sulfenamide] it was 55 to 56 °C.
In the case of `CCN(Sc1nc2ccccc2s1)C(C)(C)C` [N-ethyl-N-t-butylbenzothiazole-2-sulfenamide] it was 60 to 61 °C.
